From patent US6867192B1, “Compounds useful in the treatment of inflammatory diseases” (priority 1998, dated 2005)

Target: T1, integrin VLA-4, expressed on the Jurkat J6 (human lymphoblast cell line) cell membrane with VCAM-1 (Homo sapiens, UniProt P05556+P13612)
T1 construct: integrin VLA-4, expressed on the Jurkat J6 (human lymphoblast cell line) cell membrane; endogenous in cells; host or cells: Jurkat J6 cells (integrin). zzVCAM-1 was made in house in Drosophila melanogaster S2 cells
Assay: Jurkat J6/VCAM-1 adhesion assay
Format: cell-based
Conditions: Jurkat J6 cell adhesion to VCAM-1, 1 mM MnCl2; mean of n experiments
Description: (1) Jurkat J6/VCAM-1 Adhesion Assay
This assay was used to investigate the interaction of the integrin VLA-4, expressed on the Jurkat J6 (human lymphoblast cell line) cell membrane with VCAM-1. Polystyrene 96-well microtitre plates were coated with human immunoglobulin G (IgG; Sigma Chemicals, UK, Product No. 14506) at a concentration of 0.05 mg ml^−1 in bicarbonate buffer (36 mM NaHCO3 and 22 mM Na2CO3, prepared in Dulbecco's phosphate buffered saline at pH 9.8 (PBS); Sigma Chemicals, UK, Product No. 14190-094) for 2 hours at 37° C. This solution was then aspirated and the plates were washed twice with PBS.
VCAM-1 was prepared by cloning its constituent seven domains into a Drosophila expression system with a zz (Protein A) tag. This zzVCAM-1 was then expressed from Drosophila melanogaster S2 cell culture, induced with copper. Protease inhibitors were added and the culture supernatant was clarified either by filtration through a 0.2 μm filter or by centrifugation. The zzVCAM-1 was then purified from this clarified medium using an IgG agarose column, equilibrated with either 20 mM sodium phosphate pH 7.2 alone or in the presence of 0.5M sodium chloride. Elution of zzVCAM-1 from the column was mediated using 3M ammonium thiocyanate, which was subsequently removed using a G25 desalting column, equilibrated with 20 mM sodium phosphate, pH 7.2. The purified zzVCAM-1 was then concentrated to a small volume (Amicon stirred cell concentrators) until a concentration of 62.5 ng ml^−1 was obtained, calculated using the extinction coefficient value.
This solution of zzVCAM-1 was then incubated overnight at 4° C. in the IgG coated microtitre plates with 3% bovine serum albumin (BSA) in PBS, followed by aspiration and two further washes with PBS. A concentration of the Jurkat J6 cells (6×10^6 cels ml^−1), grown in cell media RPMI 1640 (HyClone Ltd, Product No. B-9106-L) supplemented with 10% heat inactivated fetal calf serum (FCS; Gibco BRL, Product No. 10099-075) and 2 mM L-glutamine, were labelled with 10 μM of the fluorescent dye, 2′, 7′-bis(2-carboxyethyl)-5-(e6)-carboxyfluorescein acetoxymethyl ester (BCECF-AM; Molecular Probes Inc, Product No. B-1150) at 37° C. for 10 minutes. The excess dye was then removed by centrifugation at 500×g for 5 minutes and the cells were resuspended at a concentration of 1.2×10^7 cells ml^−1 in Hank's balanced salt solution (HBSS; Gibco BRL, Product No. 14190-094).
Equal volumes of compounds (dissolved in an appropriate solvent and diluted in HBSS containing 1 mM MnCl2) and the labelled Jurkat J6 cells, were added to the VCAM-1 coated plates and adhesion was allowed to proceed for 30 minutes at 37° C. Non, or loosely adhered cells, were removed by inversion of the plate and blotted with tissue paper. Two washes with PBS and further blotting were then performed, before the addition of 2% detergent (Triton-X®; Sigma Chemicals UK, Product No. X100). Counting was undertaken in a Wallac Viktor™ Fluorimeter, where low fluorescence values were indicative of compounds which had inhibited adhesion. All samples were assayed in singlicate and the following four parameter curve fit, shown by Equation (I) was applied: [formula]
Where a is the minimum, b is the Hill slope, c is the IC50 and d is the maximum. (Maximum and minimum values are those compared to adhesion in the absence of compound and in the presence of the dipotassium salt of 2 mM EDTA; Sigma Chemicals, UK, Product No. ED2P). Data is presented as the mean pIC50 with the standard error of the mean of n experiments.

T1 sequence (P13612 34-1032): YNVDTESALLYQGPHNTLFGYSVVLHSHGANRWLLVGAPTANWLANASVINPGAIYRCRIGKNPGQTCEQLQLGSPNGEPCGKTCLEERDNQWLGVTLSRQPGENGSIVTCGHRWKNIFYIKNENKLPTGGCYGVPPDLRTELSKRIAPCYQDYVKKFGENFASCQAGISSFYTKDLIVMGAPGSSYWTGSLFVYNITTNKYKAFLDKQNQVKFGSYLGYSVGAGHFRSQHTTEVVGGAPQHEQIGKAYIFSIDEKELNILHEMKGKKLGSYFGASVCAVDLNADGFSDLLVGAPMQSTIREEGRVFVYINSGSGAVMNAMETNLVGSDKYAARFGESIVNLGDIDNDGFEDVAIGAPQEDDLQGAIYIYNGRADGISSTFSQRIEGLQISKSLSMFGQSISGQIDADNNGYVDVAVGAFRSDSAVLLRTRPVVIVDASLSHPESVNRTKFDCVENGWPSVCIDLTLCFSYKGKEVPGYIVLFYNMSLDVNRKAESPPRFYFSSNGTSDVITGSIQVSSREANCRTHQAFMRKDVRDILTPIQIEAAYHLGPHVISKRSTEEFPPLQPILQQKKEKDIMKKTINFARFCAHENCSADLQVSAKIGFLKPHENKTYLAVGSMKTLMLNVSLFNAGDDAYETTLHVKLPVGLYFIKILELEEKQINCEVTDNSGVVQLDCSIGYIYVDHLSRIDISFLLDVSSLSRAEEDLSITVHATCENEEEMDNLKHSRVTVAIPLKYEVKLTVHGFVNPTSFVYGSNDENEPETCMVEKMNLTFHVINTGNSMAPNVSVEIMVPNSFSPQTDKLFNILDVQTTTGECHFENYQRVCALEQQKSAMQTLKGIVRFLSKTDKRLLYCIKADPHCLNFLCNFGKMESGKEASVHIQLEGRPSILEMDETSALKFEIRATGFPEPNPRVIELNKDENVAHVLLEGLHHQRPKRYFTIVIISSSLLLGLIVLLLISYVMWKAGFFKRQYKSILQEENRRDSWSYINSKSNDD
T1 sequence (P05556 21-798): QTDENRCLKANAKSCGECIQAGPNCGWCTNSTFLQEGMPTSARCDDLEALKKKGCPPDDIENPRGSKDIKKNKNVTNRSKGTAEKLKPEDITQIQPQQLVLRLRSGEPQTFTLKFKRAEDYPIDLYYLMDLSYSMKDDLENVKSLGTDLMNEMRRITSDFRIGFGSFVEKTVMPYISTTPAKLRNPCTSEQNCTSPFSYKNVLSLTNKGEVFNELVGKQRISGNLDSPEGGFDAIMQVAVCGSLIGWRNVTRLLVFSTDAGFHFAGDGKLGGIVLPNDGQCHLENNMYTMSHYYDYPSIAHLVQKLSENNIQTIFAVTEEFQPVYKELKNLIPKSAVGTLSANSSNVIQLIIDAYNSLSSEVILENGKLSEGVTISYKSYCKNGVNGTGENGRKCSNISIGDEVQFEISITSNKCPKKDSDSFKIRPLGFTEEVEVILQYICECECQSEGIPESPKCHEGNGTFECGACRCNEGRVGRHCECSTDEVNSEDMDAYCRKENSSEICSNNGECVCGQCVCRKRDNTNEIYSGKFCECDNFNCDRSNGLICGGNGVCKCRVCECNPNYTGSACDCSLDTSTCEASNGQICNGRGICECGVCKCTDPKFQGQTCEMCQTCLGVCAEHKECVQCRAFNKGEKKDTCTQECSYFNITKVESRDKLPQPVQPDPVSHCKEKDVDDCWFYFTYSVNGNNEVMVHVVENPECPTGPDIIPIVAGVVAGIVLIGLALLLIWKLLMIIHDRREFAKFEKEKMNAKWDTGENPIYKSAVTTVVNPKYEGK

Row | IC50 [nM] | Structure (SMILES)
1 | 13.2 | CC(C)C[C@H](NC(=O)COc1ccccc1C(=O)c1ccccc1)C(=O)N[C@@H](Cc1ccc(OC(=O)N2CCC(NC(=O)Cc3ccccc3)CC2)cc1)C(=O)O [Example 1, (2S)-2-[((2S)-2-{[2-(2-Benzoylphenoxy)acetyl]amino}-4-methylpentanoyl)amino]-3-{4-[({4-[(2-phenylacetyl)amino]-1-piperidinyl}carbonyl)oxy]phenyl}propanoic acid]
2 | 9.33 | CC(C)C[C@H](NC(=O)COc1cc2ccccc2cc1C(=O)N1CCCCC1)C(=O)N[C@@H](Cc1ccc(OC(=O)N2CCC(NC(=O)Cc3ccccc3)CC2)cc1)C(=O)O [Example 2, (2S)-2-({(2S)-4-Methyl-2-[(2-{[3-(1-piperidinylcarbonyl)-2-naphthyl]oxy}acetyl)amino]pentanoyl}amino)-3-{4-[({4-[(2-phenylacetyl)amino]-1-piperidinyl}carbonyl)oxy]phenyl}propanoic acid]
3 | 41.7 | CC(C)C[C@H](NC(=O)COc1ccc(C(=O)N2CCCCC2)cc1)C(=O)N[C@@H](Cc1ccc(OC(=O)N2CCC(NC(=O)C(C3CCCCC3)C3CCCCC3)CC2)cc1)C(=O)O [Example 3, (2S)-3-{4-[({4-[(2,2-Dicyclohexylacetyl)amino]-1-piperidinyl}carbonyl)oxy]phenyl}-2-{[(2S)-4-methyl-2-({2-[4-(1-piperidinylcarbonyl)phenoxy]acetyl}amino)pentanoyl]amino}propanoic acid]
4 | 16.6 | CC(C)C[C@H](NC(=O)COc1ccc(C(=O)N2CCCCC2)cc1)C(=O)N[C@@H](Cc1ccc(OC(=O)N2CCOCC2)cc1)C(=O)O [Example 4, (2S)-2-{[(2S)-4-Methyl-2-({2-[4-(1-piperidinylcarbonyl)phenoxy]acetyl}amino)pentanoyl]amino}-3-{4-[(4-morpholinylcarbonyl)oxy]phenyl}propanoic acid]
5 | 7.76 | CC(C)C[C@H](NC(=O)COc1ccc(C(=O)N2CCCCC2)cc1)C(=O)N[C@@H](Cc1ccc(OC(=O)N2CCC(C(N)=O)CC2)cc1)C(=O)O [Example 5, (2S)-3-[4-({[4-(Aminocarbonyl)-1-piperidinyl]carbonyl}oxy)phenyl]-2-{[(2S)-4-methyl-2-({2-[4-(1-piperidinylcarbonyl)phenoxy]acetyl}amino)pentanoyl]amino}propanoic acid]
6 | 5.62 | CC(C)C[C@H](NC(=O)COc1ccccc1C(=O)c1ccccc1)C(=O)N[C@@H](Cc1ccc(OC(=O)N2CCC(C(N)=O)CC2)cc1)C(=O)O [Example 6, (2S)-3-[4-({[4-(Aminocarbonyl)-1-piperidinyl]carbonyl}oxy)phenyl]-2-[((2S)-2-{[2-(2-benzoylphenoxy)acetyl]amino}-4-methylpentanoyl)amino]propanoic acid]
7 | 2.63 | CC(C)C[C@H](NC(=O)COc1ccc(C(N)=O)cc1)C(=O)N[C@@H](Cc1ccc(OC(=O)N2CCC(C(N)=O)CC2)cc1)C(=O)O [Example 7, (2S)-2-{[(2S)-2-({2-[4-(Aminocarbonyl)phenoxy]acetyl}amino)-4-methylpentanoyl]amino}-3-[4-({[4-(aminocarbonyl)-1-piperidinyl]carbonyl}oxy)phenyl]propanoic acid]
8 | 42.7 | CC(C)C[C@H](NC(=O)COc1ccccc1I)C(=O)N[C@@H](Cc1ccc(OC(=O)N2CCC(NC(=O)CC3CCCCC3)CC2)cc1)C(=O)O [Example 8, (2S)-3-{4-[({4-[(2-Cyclohexylacetyl)amino]-1-piperidinyl}carbonyl)oxy]phenyl}-2-[((2S)-2-{[2-(2-iodophenoxy)acetyl]amino}-4-methylpentanoyl)amino]propanoic acid]
9 | 26.3 | CC(C)C[C@H](NC(=O)COc1ccccc1I)C(=O)N[C@@H](Cc1ccc(OC(=O)N2CCC(NC(=O)C(C3CCCCC3)C3CCCCC3)CC2)cc1)C(=O)O [Example 9, (2S)-3-{4-[({4-[(2,2-Dicyclohexylacetyl)amino]-1-piperidinyl}carbonyl)oxy]phenyl}-2-[((2S)-2-{[2-(2-iodophenoxy)acetyl]amino}-4-methylpentanoyl)amino]propanoic acid]
10 | 8.32 | CC(C)C[C@H](NC(=O)c1cccc2c1oc1ccccc12)C(=O)N[C@@H](Cc1ccc(OC(=O)N2CCOCC2)cc1)C(=O)O [Example 10, (2S)-2-({(2S)-2-[(Dibenzo[b,d]furan-4-ylcarbonyl)amino]-4-methylpentanoyl}amino)-3-{4-[(4-morpholinylcarbonyl)oxy]phenyl}propanoic acid]
11 | 8.32 | CC(C)C[C@H](NC(=O)c1cccc2c1oc1ccccc12)C(=O)N[C@@H](Cc1ccc(OC(=O)N2CCN(C(=O)c3ccco3)CC2)cc1)C(=O)O [Example 11, (2S)-2-({(2S)-2-[(Dibenzo[b,d]furan-4-ylcarbonyl)amino]-4-methylpentanoyl}amino)-3-[4-({[4-(2-furoyl)-1-piperazinyl]carbonyl}oxy)phenyl]propanoic acid]
12 | 11 | CC(C)C[C@H](NC(=O)c1cccc2c1oc1ccccc12)C(=O)N[C@@H](Cc1ccc(OC(=O)N2CCN(C(=O)c3ccccc3)CC2)cc1)C(=O)O [Example 12, (2S)-3-(4-{[(4-Benzoyl-1-piperazinyl)carbonyl]oxy}phenyl)-2-({(2S)-2-[(dibenzo[b,d]furan-4-ylcarbonyl)amino]-4-methylpentanoyl}amino)propanoic acid]
13 | 25.7 | CC(C)C[C@H](NC(=O)c1cccc2c1oc1ccccc12)C(=O)N[C@@H](Cc1ccc(OC(=O)N2CCC(NC(=O)Cc3ccccc3)CC2)cc1)C(=O)O [Example 13, (2S)-2-({(2S)-2-[(Dibenzo[b,d]furan-4-ylcarbonyl)amino]-4-methylpentanoyl}amino)-3-{4-[({4-[(2-phenylacetyl)amino]-1-piperidinyl}carbonyl)oxy]phenyl}propanoic acid]
14 | 16.6 | CC(C)C[C@H](NC(=O)COc1ccccc1I)C(=O)N[C@@H](Cc1ccc(OC(=O)N2CCC(NC(=O)Cc3ccccc3)CC2)cc1)C(=O)O [Example 14, (2S)-2-[((2S)-2-{[2-(2-Iodophenoxy)acetyl]amino}-4-methylpentanoyl)amino]-3-{4-[({4-[(2-phenylacetyl)amino]-1-piperidinyl}carbonyl)oxy]phenyl}propanoic acid]
15 | 2.69 | CC(=O)N1CCN(C(=O)Oc2ccc(C[C@H](NC(=O)[C@H](CC(C)C)NC(=O)COc3ccccc3I)C(=O)O)cc2)CC1 [Example 15, (2S)-3-(4-{[(4-Acetyl-1-piperazinyl)carbonyl]oxy}phenyl)-2-[((2S)-2-{[2-(2-iodophenoxy)acetyl]amino}-4-methylpentanoyl)amino]propanoic acid]
16 | 3.72 | CC(=O)N1CCN(C(=O)Oc2ccc(C[C@H](NC(=O)[C@H](CC(C)C)NC(=O)c3cccc4c3oc3ccccc34)C(=O)O)cc2)CC1 [Example 18, (2S)-3-(4-{[(4-Acetyl-1-piperazinyl)carbonyl]oxy}phenyl)-2-({(2S)-2-[(dibenzo[b,d]furan-4-ylcarbonyl)amino]-4-methylpentanoyl}amino)propanoic acid]
17 | 7.59 | CC(C)C[C@H](NC(=O)COc1ccccc1I)C(=O)N[C@@H](Cc1ccc(OC(=O)N2CCN(C(=O)c3ccccc3)CC2)cc1)C(=O)O [Example 19, (2S)-3-(4-{[(4-Benzoyl-1-piperazinyl)carbonyl]oxy}phenyl)-2-[((2S)-2-{[2-(2-iodophenoxy)acetyl]amino}-4-methylpentanoyl)amino]propanoic acid]
